The source of these data is patent US20250127904A1, “SIGLEC LIGANDS, CONJUGATES, AND METHODS OF USE THEREOF” (Osprey Biopharmaceuticals, Inc., priority 2023, published 2025).

The target in assay [1] is T1, biotinylated mouse siglec-2-Fc-Avi (Mus musculus, UniProt P35329).
T1 construct: made in house
T1 sequence (P35329 22-708 limits assumed): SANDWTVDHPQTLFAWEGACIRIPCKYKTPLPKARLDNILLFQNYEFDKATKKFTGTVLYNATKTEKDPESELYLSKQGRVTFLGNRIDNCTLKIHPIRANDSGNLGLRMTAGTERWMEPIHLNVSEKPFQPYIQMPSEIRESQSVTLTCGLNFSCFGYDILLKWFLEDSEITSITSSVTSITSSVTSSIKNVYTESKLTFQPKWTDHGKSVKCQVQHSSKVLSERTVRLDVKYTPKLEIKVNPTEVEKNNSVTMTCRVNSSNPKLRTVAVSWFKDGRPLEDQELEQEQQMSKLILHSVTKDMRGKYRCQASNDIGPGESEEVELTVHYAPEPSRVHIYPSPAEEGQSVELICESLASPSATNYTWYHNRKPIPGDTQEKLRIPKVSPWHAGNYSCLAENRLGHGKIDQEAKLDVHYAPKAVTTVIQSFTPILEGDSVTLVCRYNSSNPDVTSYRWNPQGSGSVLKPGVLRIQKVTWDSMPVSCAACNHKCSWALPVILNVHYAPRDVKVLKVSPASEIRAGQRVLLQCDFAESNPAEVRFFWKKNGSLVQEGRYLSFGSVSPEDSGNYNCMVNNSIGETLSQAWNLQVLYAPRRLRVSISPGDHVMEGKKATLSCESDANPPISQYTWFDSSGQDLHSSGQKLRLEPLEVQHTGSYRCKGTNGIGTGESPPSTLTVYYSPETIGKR
Put plainly: SPR binding to mouse siglec-2/CD22. Particulars: steady-state analysis, read-out: Mouse CD22 affinity. How it is done: (§1) The following proteins were used for CD22 ligand binding: biotinylated human siglec-2/CD22 protein-His-Avitag (Acro Biosystems, Cat #SI2-H82E3), biotinylated mouse siglec-2-Fc-Avi (in-house production), and recombinant cynomolgus siglec-2/CD22 His-tag (R&D systems, Cat #9864-SL-050). Prior to immobilization, CD22 proteins were treated with SialoExo (Genovis, Cat #G1-SM1-020) for 4 hours at 37° C. to remove native sialic acid residues.
(§2) Capture of biotinylated CD22 constructs was performed using a Cytiva SA chip (BR100398) on a Biacore 8K instrument. Human siglec 2 was immobilized on channels 1-4 and mouse siglec 2 on channels 5-8 on the active flow cell (2) and the reference flow cell (1) was immobilized with biotinylated human FGFR2 Fc Avi, an unrelated protein, to account for any nonspecific binding. Human siglec 2 and Mouse siglec 2 were diluted in running buffer to 20 μg/mL and injected on the active flow cell (2) for 300 seconds at 5 μL/min, yielding about 3500 RU of captured constructs.
(§3) Binding experiments of siglec-ligand conjugated proteins or Siglec ligand compounds were performed on the surfaces prepared above in 10 mM HEPES, 150 mM NaCl, 0.05% Tween-20, pH 7.5, 1% DMSO as the running buffer. Compounds were serially diluted in running buffer from 50 μM to 97.6 nM and injected over both the reference and active flow cells for 90 seconds at 30 μL/min. The compounds were then allowed to dissociate from the surface for 120 seconds. No regeneration was required as the compounds completely dissociated from the surface after 30 seconds. Solvent correction was performed using 0.5, 1, 1.5, and 2% DMSO spike into running buffer without DMSO. Data was analyzed using steady-state analysis in Biacore Insight Evaluation Software, version 3.0.

The target in assay [2] is T2, biotinylated human siglec-2/CD22 protein-His-Avitag (Homo sapiens, UniProt P20273).
T2 construct: purchased Acro Biosystems SI2-H82E3
T2 sequence (P20273 20-847): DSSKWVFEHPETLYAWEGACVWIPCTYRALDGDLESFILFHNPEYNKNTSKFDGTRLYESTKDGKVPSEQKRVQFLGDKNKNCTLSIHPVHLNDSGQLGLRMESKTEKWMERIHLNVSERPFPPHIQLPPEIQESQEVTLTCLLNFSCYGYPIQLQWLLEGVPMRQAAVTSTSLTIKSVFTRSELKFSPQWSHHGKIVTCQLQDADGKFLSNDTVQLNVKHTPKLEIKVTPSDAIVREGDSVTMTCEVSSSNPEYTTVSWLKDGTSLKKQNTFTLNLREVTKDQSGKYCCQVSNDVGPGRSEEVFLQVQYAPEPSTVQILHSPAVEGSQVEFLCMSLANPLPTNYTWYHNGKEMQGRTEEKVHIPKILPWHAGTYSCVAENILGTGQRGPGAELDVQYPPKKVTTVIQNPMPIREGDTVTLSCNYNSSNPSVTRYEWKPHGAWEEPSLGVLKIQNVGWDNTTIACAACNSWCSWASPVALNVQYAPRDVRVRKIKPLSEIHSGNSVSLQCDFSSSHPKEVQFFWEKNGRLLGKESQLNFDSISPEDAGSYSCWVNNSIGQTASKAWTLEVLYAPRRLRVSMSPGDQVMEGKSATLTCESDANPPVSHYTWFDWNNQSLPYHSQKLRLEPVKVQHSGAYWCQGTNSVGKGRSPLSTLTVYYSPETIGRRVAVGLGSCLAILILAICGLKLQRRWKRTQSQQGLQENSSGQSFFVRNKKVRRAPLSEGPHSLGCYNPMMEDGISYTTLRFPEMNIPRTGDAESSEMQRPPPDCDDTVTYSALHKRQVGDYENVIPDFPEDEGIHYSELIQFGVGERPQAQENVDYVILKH
Put plainly: SPR binding to human siglec-2/CD22. Particulars: steady-state analysis, read-out: Human CD22 affinity. The procedure:
as §1, §2, §3
A general note: In SPR one partner is held on a chip, and binding of the other changes the refractive index at the surface.

The target of assay [3] is recombinant cynomolgus siglec-2/CD22 His-tag (Macaca fascicularis, UniProt A0A2K5WCZ6). The experiment in a line: SPR binding to cynomolgus siglec-2/CD22. Particulars: steady-state analysis, read-out: Cyno CD22 affinity. How it is done: as §1
recombinant cynomolgus siglec-2/CD22 His-tag, sequence (A0A2K5WCZ6 entry or part of it): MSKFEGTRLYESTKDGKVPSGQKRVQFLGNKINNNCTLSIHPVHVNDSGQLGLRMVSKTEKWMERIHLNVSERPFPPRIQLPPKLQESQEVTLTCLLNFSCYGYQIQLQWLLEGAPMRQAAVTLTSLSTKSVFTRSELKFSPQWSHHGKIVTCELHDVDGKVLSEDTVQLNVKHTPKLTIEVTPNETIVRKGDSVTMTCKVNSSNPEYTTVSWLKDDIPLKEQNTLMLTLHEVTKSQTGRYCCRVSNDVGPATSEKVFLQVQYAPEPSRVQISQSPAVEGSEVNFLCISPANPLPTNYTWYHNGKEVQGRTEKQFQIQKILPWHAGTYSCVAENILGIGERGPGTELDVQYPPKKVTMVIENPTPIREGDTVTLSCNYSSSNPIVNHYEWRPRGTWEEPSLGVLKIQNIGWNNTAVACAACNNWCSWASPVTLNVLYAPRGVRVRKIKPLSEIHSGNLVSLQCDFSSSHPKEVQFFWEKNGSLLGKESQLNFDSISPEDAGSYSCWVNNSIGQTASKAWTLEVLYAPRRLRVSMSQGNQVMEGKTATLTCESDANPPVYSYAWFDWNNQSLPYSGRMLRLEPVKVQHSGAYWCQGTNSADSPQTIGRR
Surface preparation for cyno CD22 protein consisted of amine coupling to Cytiva CM5 chip (Cytiva, Cat #BR100530) using the Cytiva amine coupling kit Type 2 (Cytiva, Cat #BR100633). Following the standard amine coupling protocols, EDC and NHS from the kit were mixed 1:1 and injected over flow cells 1 and 2. Cyno CD22 was then immobilized by injecting 10 μg/mL in Sodium Acetate, pH 5.5 onto flow cell (2) for 420 seconds at 10 uL/min, yielding approximately 2500 RU of captured protein. Any active carboxy groups were then capped with 1M Ethanolamine, pH 8.5 for 420 s on flow cells 1 and 2.
as §3

On to `C#Cc1ccc(CC(=O)NC[C@@H](O)[C@@H](O)[C@@H]2O[C@@](OCc3ccccc3)(C(=O)O)C[C@H](O)[C@H]2NC(=O)CO)cc1` [Compound 1, (2R,4S,5R,6R)-2-(benzyloxy)-6-((1R,2R)-3-(2-(4-ethynylphenyl)acetamido)-1,2-dihydroxypropyl)-4-hydroxy-5-(2-hydroxyacetamido)tetrahydro-2H-pyran-2-carboxylic acid], for which the Kd in assay [1] was below 1000 nM; in assay [2], below 1000 nM; in assay [3], 1000 to 10000 nM.

On to `O=C(Cc1ccc(-c2cn(CCO)nn2)cc1)NC[C@@H](O)[C@@H](O)[C@@H]1O[C@@](OCc2ccccc2)(C(=O)O)C[C@H](O)[C@H]1NC(=O)CO` [Compound 2, (2R,4S,5R,6R)-2-(benzyloxy)-6-((1R,2R)-1,2-dihydroxy-3-(2-(4-(1-(2-hydroxyethyl)-1H-1,2,3-triazol-4-yl)phenyl)acetamido)propyl)-4-hydroxy-5-(2-hydroxyacetamido)tetrahydro-2H-pyran-2-carboxylic acid], for which the Kd in assay [1] and in assay [2] was 1000 to 10000 nM in each case.

With `C#Cc1ccc(CC(=O)NC[C@@H](O)[C@@H](O)[C@@H]2O[C@@](OCc3ccc(O)cc3)(C(=O)O)C[C@H](O)[C@H]2NC(=O)CO)cc1` [Compound 3, (2R,4S,5R,6R)-6-((1R,2R)-3-(2-(4-ethynylphenyl)acetamido)-1,2-dihydroxypropyl)-4-hydroxy-5-(2-hydroxyacetamido)-2-((4-hydroxybenzyl)oxy)tetrahydro-2H-pyran-2-carboxylic acid], the values for the Kd in assay [1], in assay [2] and in assay [3] were 1000 to 10000 nM, below 1000 nM and below 1000 nM, respectively.

In the case of `C#CCOc1ccc(CC(=O)NC[C@@H](O)[C@@H](O)[C@@H]2O[C@@](OCc3ccccc3)(C(=O)O)C[C@H](O)[C@H]2NC(=O)CO)cc1` [Compound 4, (2R,4S,5R,6R)-2-(benzyloxy)-6-((1R,2R)-1,2-dihydroxy-3-(2-(4-(prop-2-yn-1-yloxy)phenyl)acetamido)propyl)-4-hydroxy-5-(2-hydroxyacetamido)tetrahydro-2H-pyran-2-carboxylic acid], the Kd in assay [1] and in assay [2] was 1000 to 10000 nM throughout.

Consider `O=C(Cc1ccc(OCc2cn(CCO)nn2)cc1)NC[C@@H](O)[C@@H](O)[C@@H]1O[C@@](OCc2ccccc2)(C(=O)O)C[C@H](O)[C@H]1NC(=O)CO` [Compound 5, (2R,4S,5R,6R)-2-(benzyloxy)-6-((1R,2R)-1,2-dihydroxy-3-(2-(4-((1-(2-hydroxyethyl)-1H-1,2,3-triazol-4-yl)methoxy)phenyl)acetamido)propyl)-4-hydroxy-5-(2-hydroxyacetamido)tetrahydro-2H-pyran-2-carboxylic acid], for which the Kd in assay [1] and in assay [2] was 1000 to 10000 nM throughout.

Consider `C#CCCCCCCC#Cc1ccc(CC(=O)NC[C@@H](O)[C@@H](O)[C@@H]2O[C@@](OCc3ccccc3)(C(=O)O)C[C@H](O)[C@H]2NC(=O)CO)cc1` [Compound 6, (2R,4S,5R,6R)-2-(benzyloxy)-6-((1R,2R)-3-(2-(4-(deca-1,9-diyn-1-yl)phenyl)acetamido)-1,2-dihydroxypropyl)-4-hydroxy-5-(2-hydroxyacetamido)tetrahydro-2H-pyran-2-carboxylic acid], for which the Kd in assay [1] and in assay [2] was 1000 to 10000 nM each time.

`C#CCCCCCCCCOc1ccc(CC(=O)NC[C@@H](O)[C@@H](O)[C@@H]2O[C@@](OCc3ccccc3)(C(=O)O)C[C@H](O)[C@H]2NC(=O)CO)cc1` [Compound 7, (2R,4S,5R,6R)-2-(benzyloxy)-6-((1R,2R)-3-(2-(4-(dec-9-yn-1-yloxy)phenyl)acetamido)-1,2-dihydroxypropyl)-4-hydroxy-5-(2-hydroxyacetamido)tetrahydro-2H-pyran-2-carboxylic acid]: the Kd in assay [1], in assay [2] and in assay [3] was 1000 to 10000 nM each time.

Turning to `O=C(O)CCCCCCCCCCc1ccc(CC(=O)NC[C@@H](O)[C@@H](O)[C@@H]2O[C@@](OCc3ccccc3)(C(=O)O)C[C@H](O)[C@H]2NC(=O)CO)cc1` [Compound 8, (2R,4S,5R,6R)-2-(benzyloxy)-6-((1R,2R)-3-(2-(4-(10-carboxydecyl)phenyl)acetamido)-1,2-dihydroxypropyl)-4-hydroxy-5-(2-hydroxyacetamido)tetrahydro-2H-pyran-2-carboxylic acid], the Kd is below 1000 nM in assay [1], below 1000 nM in assay [2] and 1000 to 10000 nM in assay [3].

For `C#Cc1ccc(CC(=O)NC[C@@H](O)[C@@H](O)[C@@H]2O[C@@](OCCCCCCN)(C(=O)O)C[C@H](O)[C@H]2NC(=O)CO)cc1` [Compound 10, (2R,4S,5R,6R)-2-((6-aminohexyl)oxy)-6-((1R,2R)-3-(2-(4-ethynylphenyl)acetamido)-1,2-dihydroxypropyl)-4-hydroxy-5-(2-hydroxyacetamido)tetrahydro-2H-pyran-2-carboxylic acid], the Kd in assay [1] and in assay [2] was 1000 to 10000 nM in each case.

With `C#Cc1ccc(CC(=O)NC[C@@H](O)[C@@H](O)[C@@H]2O[C@@](OCCCCCCNc3c(NCCOC)c(=O)c3=O)(C(=O)O)C[C@H](O)[C@H]2NC(=O)CO)cc1` [Compound 26, (2R,4S,5R,6R)-6-((1R,2R)-3-(2-(4-ethynylphenyl)acetamido)-1,2-dihydroxypropyl)-4-hydroxy-5-(2-hydroxyacetamido)-2-((6-((2-((2-methoxyethyl)amino)-3,4-dioxocyclobut-1-en-1-yl)amino)hexyl)oxy)tetrahydro-2H-pyran-2-carboxylic acid], the Kd in assay [1] and in assay [2] was below 1000 nM each time.

Consider `C#Cc1ccc(CC(=O)NC[C@@H](O)[C@@H](O)[C@@H]2O[C@@](OCCCCCCNC(=O)CCCC)(C(=O)O)C[C@H](O)[C@H]2NC(=O)CO)cc1` [Compound 29, (2R,4S,5R,6R)-6-((1R,2R)-3-(2-(4-ethynylphenyl)acetamido)-1,2-dihydroxypropyl)-4-hydroxy-5-(2-hydroxyacetamido)-2-((6-pentanamidohexyl)oxy)tetrahydro-2H-pyran-2-carboxylic acid], for which the Kd in assay [1] and in assay [2] was below 1000 nM in each case.
